Where “and” joins values, the source holds several entries; their conditions need not be identical. Identical values can stand only once.
Columns and labels:
Format in all cases: in vivo
[1] = system: cat fleas (Ctenocephalides felis); experiment: Flea egg hatching after oral application to mouse (systemic control); details: mouse host, oral 20 mg/kg in corn oil; for adjusted percentage concerning the loss of hatchings (%) 5 days after: flea eggs retrieved 5 days after application; for adjusted percentage concerning the loss of hatchings (%) 14 days after: flea eggs retrieved 14 days after application; for adjusted percentage concerning the loss of hatchings (%) 30 days after: flea eggs retrieved 30 days after application
Procedure: By using an appropriate sonde for the mouse, oral application to the mouse was performed at the rate of about 10 mL of the composition per kilogram body weight of the mouse. The said mouse was then stabilized with a wire netting, and was placed in a plastic container (depth 15 cm×width 15 cm×height 60 cm). Thirty (10 male and 20 female) starved adult cat fleas (Ctenocephalides felis) were freed into the said plastic container and the produced f lea eggs were retrieved f ive days later. A suitable amount (about 60 eggs) was transferred to a plastic dish and, preserved under the conditions wherein the temperature was 26° C. and the humidity was at 90%. After 2 days of preservation, the hatching conditions were observed. Afterwards, the treated mouse was allowed to inhabit a standard pet cage with food and water. Ten days after the application, the mouse was stabilized, placed in a plastic container, and was exposed to cat fleas in the same way as stated above. The produced flea eggs were then retrieved 14 days after the application, preserved in the conditions stated above, and had the hatching conditions observed. Twenty-six days after the application, the mouse was stabilized, placed in a plastic container, and was exposed to cat fleas in the same way as stated above. The produced flea eggs were then retrieved 30 days after the application of the composition, preserved in the conditions stated above, and had the hatching conditions observed. The same procedure was repeated without the application of the composition. The percentages of hatching for applied mouse “T” and the percentage of hatching for non-applied mouse “C” were derived from the equation, respectively: T=(the amount of hatched eggs)÷(the amount of retrieved eggs)×100 C=(the amount of hatched eggs)÷(the amount of retrieved eggs)×100 The acquired values of “T” and “C” were used to determine the adjusted percentage concerning the loss of hatchings by employing equation 1. The acquired values of “T” and “C” were utilized in the following equation: The adjusted percentage concerning the loss of hatchings (%)=(C−T)÷C×100 to determine the adjusted percentage concerning the loss of hatchings (hereinafter, recited as APH). […] In other words, “APH” looks at the amount of eggs that were unable to hatch rather than the amount of eggs that were able to hatch.

[2] = system: cat fleas (Ctenocephalides felis); experiment: Flea egg hatching after oral application to cats (systemic control); details: cat host, oral 20 mg/kg in cat feed
Procedure: Seven days after infestation, the weights of two cats of were measured and Compound #1 was applied orally to each of said two cats in an amount of 20 mg per one kilogram of the weight of the cat by incorporating Compound #1 into cat feed and having the cat to eat it. After application, the cats were placed in said steel cages.
(§1) The flea eggs collected onto the removable bottom tray were retrieved 6 and 14 days after the date of application. About 60 eggs were chosen from each batch of retrieved eggs. They were transferred to a plastic dish and then preserved under the conditions wherein the temperature was 26° C. and the humidity was at 90%. After 5-7 days of preservation, the eggs were observed about hatching.
The same procedure was repeated with another two cats except that cat feed comprising no Compound #1 was applied.
The percentages of hatching for applied cats “T” and the percentage of hatching for non-applied cats “C” were derived from the equation, respectively:
(§2) T=(the amount of hatched eggs)÷(the amount of retrieved eggs)×100
(§3) C=(the amount of hatched eggs)÷(the amount of retrieved eggs)×100
(§4) The obtained values of “T” and “C” were then used to determine the APH by employing the equation 1 mentioned above Example 1.

[3] = system: cat fleas (Ctenocephalides felis); experiment: Flea egg hatching after oral application to dogs (systemic control); details: beagle dog host, oral 10 mg/kg in dog feed
Procedure: One day after infestation, the weights of three dogs were measured and Compound #1 was applied orally to each of said three dogs in an amount of 10 mg per one kilogram of the weight of the dog by incorporating Compound #1 into dog feed and having the dog to eat it. After application, the dogs were placed in said steel cages.
as §1, with “retrieved 4” for “retrieved 6”, “and 5” for “and 14”, “the” for “the date of”
The same procedure was repeated with another three dogs except that dog feed comprising no Compound #1 was applied. The percentages of hatching for applied dogs “T” and the percentage of hatching for non-applied dogs “C” were derived from the equation, respectively:
as §2, §3, §4

Row | SMILES | adjusted percentage concerning the loss of hatchings (%) 5 days after [1] | adjusted percentage concerning the loss of hatchings (%) 14 days after [1] | adjusted percentage concerning the loss of hatchings (%) 30 days after [1] | average APH after 6 days ([2]; flea eggs retrieved 6 days after application) | average APH after 14 days ([2]; flea eggs retrieved 14 days after application, 20 mg/kg) | average APH after 4 days ([3]; flea eggs retrieved 4 days after application) | average APH after 5 days ([3]; flea eggs retrieved 5 days after application, 10 mg/kg)
1 | O=C(NC(=O)c1c(F)cccc1F)Nc1ccc(OC(F)(F)C(F)C(F)(F)F)cc1F (stereo not drawn) [Compound #1, 1-(2,6-difluorobenzoyl)-3-[2-fluoro-4-(1,1,2,3,3,3-hexafluoropropoxy)phenyl]urea] | 100% | 100% | 93% | 81.9% | 79.6% and 80% | 86.5% | 76.6% and 77%
2 | O=C(NC(=O)c1c(F)cccc1F)Nc1ccc(OC(F)(F)C(F)F)cc1 [Compound B, 1-(2,6-difluorobenzoyl)-3-[4-(1,1,2,2-tetrafluoroethoxy)phenyl]urea] | 83% | 0% |  |  |  |  | 
3 | O=C(NC(=O)c1c(F)cccc1F)Nc1cccc(Oc2ncc(C(F)(F)F)cc2Cl)c1 [Compound C, 1-(2,6-difluorobenzoyl)-3-[3-(3-chloro-5-trifluoromethylpyridin-2-yloxy)phenyl]urea] | 96% | 77% | 11% |  |  |  | 

From patent US20010044470A1, “METHOD TO CONTROL ANIMAL ECTO-PARASITES” (priority 1997, published 2001)
